# According to patent US10093623B2, “Cyclic amides as MetAP-2 inhibitors” (MERCK PATENT GmbH, priority 2012, dated 2018):
# Target: MetAP-2 (Homo sapiens, UniProt P50579)
# Assay: MetAP-2 activity measurement (coupled enzymatic reactions, Met-Arg-Ser substrate, dianisidine detection at 450 nm)
# Type: biochemical
# Settings: Inhibition of MetAP-2; read-out: IC50 enzyme
# In short: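 Rate read from the linear part of the 450 nm absorbance trace. Dianisidine oxidation by peroxidase reports H2O2 made when amino acid oxidase acts on methionine cleaved from MAS tripeptide, one mol dye per mol Met; extinction coefficient gives molar activity.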
# Chain of MetAP-2 (P50579 whole entry, species assumed): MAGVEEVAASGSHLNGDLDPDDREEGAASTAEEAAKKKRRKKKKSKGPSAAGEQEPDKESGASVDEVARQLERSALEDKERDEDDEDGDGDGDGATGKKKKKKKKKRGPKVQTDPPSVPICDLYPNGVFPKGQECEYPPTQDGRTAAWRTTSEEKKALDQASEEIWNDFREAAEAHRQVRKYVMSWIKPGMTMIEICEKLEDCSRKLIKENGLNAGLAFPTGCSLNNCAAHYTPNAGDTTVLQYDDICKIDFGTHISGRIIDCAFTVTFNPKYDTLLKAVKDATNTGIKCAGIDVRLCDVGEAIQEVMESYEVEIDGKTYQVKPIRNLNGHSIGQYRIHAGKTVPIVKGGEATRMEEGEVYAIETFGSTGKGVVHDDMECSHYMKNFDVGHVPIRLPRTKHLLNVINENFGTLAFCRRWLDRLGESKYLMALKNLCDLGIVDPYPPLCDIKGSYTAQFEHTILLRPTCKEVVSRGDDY
row,Compound,IC50 [nM]
1,"O=C(NCc1cc(F)cc(Cl)c1)[C@@]1(O)CCN(c2cnc3[nH]c(C(F)(F)F)cc3c2)C1=O [B83, N-(3-Chloro-5-fluorobenzyl)-(S)-3-hydroxy-2-oxo-1-(2-trifluoromethyl-1H-pyrrolo-[2,3-b]pyridin-5-yl)pyrrolidine-3-carboxamide]",10 to 1000
2,"O=C(O)c1cc2cc(N3CC[C@](O)(C(=O)NCc4cc(F)cc(Cl)c4)C3=O)ccc2[nH]1 [B84, 5-[(S)-3-(3-Chloro-5-fluorobenzylcarbamoyl)-3-hydroxy-2-oxopyrrolidin-1-yl]-1H-indole-2-carboxylic acid]",10 to 1000
3,"O=C(O)c1cc2cc(N3CC[C@@](O)(C(=O)NCc4cc(F)cc(Cl)c4)C3=O)ccc2[nH]1 [B85, 5-[(R)-3-(3-Chloro-5-fluorobenzylcarbamoyl)-3-hydroxy-2-oxopyrrolidin-1-yl]-1H-indole-2-carboxylic acid]",> 10000
4,"N#CCn1cc(N2CCC(O)(C(=O)NCc3cc(F)cc(Cl)c3)C2=O)cn1 (stereo not shown) [B87, N-(3-Chloro-5-fluorobenzyl)-1-(1-cyanomethyl-1H-pyrazol-4-yl)-3-hydroxy-2-oxopyrrolidine-3-carboxamide]",10 to 1000
5,"CC(C)NC(=O)c1cc2cc(N3CC[C@@](O)(C(=O)NCc4cc(F)cc(Cl)c4)C3=O)ccc2[nH]1 [B89, N-Isopropyl-5-[(R)-3-(3-chloro-5-fluorobenzylcarbamoyl)-3-hydroxy-2-oxopyrrolidin-1-yl]-1H-indole-2-carboxamide]",> 10000
6,"CN(C)C(=O)c1cc2cc(N3CC[C@@](O)(C(=O)NCc4cc(F)cc(Cl)c4)C3=O)ccc2[nH]1 [B90, N,N-Dimethyl-5-[(R)-3-(3-chloro-5-fluorobenzylcarbamoyl)-3-hydroxy-2-oxopyrrolidin-1-yl]-1H-indole-2-carboxamide]",> 10000
7,"CC(=O)OC1(C(=O)NCc2cc(F)cc(Cl)c2)CCN(c2ccc3c(c2)CCC(=O)N3)C1=O (stereo not shown) [B91, 3-(3-Chloro-5-fluorobenzyl-carbamoyl)-2-oxo-1-(2-oxo-1,2,3,4-tetrahydroquinolin-6-yl)-pyrrolidin-3-yl acetate]",1000 to 10000
8,"O=C(NCc1cc(F)cc(Cl)c1)[C@@]1(O)CCN(c2cnc3[nH]cnc3c2)C1=O [B92, N-(3-Chloro-5-fluorobenzyl)-(S)-3-hydroxy-1-(3H-imidazo-[4,5-b]pyridin-6-yl)-2-oxo-pyrrolidine-3-carboxamide]",10 to 1000
9,"O=C(NCc1cc(F)cc(Cl)c1)[C@]1(O)CCN(c2cnc3[nH]cnc3c2)C1=O [B93, N-(3-Chloro-5-fluorobenzyl)-(R)-3-hydroxy-1-(3H-imidazo-[4,5-b]pyridin-6-yl)-2-oxo-pyrrolidine-3-carboxamide]",1000 to 10000
10,"CN(C)C(=O)c1cc2cc(N3CC[C@](O)(C(=O)NCc4cc(F)cc(Cl)c4)C3=O)ccc2[nH]1 [B95, N,N-Dimethyl-5-[(S)-3-(3-chloro-5-fluorobenzylcarbamoyl)-3-hydroxy-2-oxopyrrolidin-1-yl]-1H-indole-2-carboxamide]",10 to 1000
11,"CNC(=O)c1cc2cc(N3CC[C@](O)(C(=O)NCc4cc(F)cc(Cl)c4)C3=O)ccc2[nH]1 [B96, N-Methyl-5-[(S)-3-(3-chloro-5-fluorobenzylcarbamoyl)-3-hydroxy-2-oxopyrrolidin-1-yl]-1H-indole-2-carboxamide]",10 to 1000
12,"CC(C)NC(=O)c1cc2cc(N3CC[C@](O)(C(=O)NCc4cc(F)cc(Cl)c4)C3=O)ccc2[nH]1 [B97, N-Isopropyl-5-[(S)-3-(3-chloro-5-fluorobenzylcarbamoyl)-3-hydroxy-2-oxopyrrolidin-1-yl]-1H-indole-2-carboxamide]",10 to 1000
13,"COCCn1cc(N2CC[C@](O)(C(=O)NCc3cc(F)cc(Cl)c3)C2=O)cn1 [B99, N-(3-Chloro-5-fluorobenzyl)-(S)-3-hydroxy-1-[1-(2-methoxy-ethyl)-1H-pyrazol-4-yl]-2-oxo-pyrrolidine-3-carboxamide]",10 to 1000
14,"COCCn1cc(N2CC[C@@](O)(C(=O)NCc3cc(F)cc(Cl)c3)C2=O)cn1 [B100, N-(3-Chloro-5-fluorobenzyl)-(R)-3-hydroxy-1-[1-(2-methoxy-ethyl)-1H-pyrazol-4-yl]-2-oxo-pyrrolidine-3-carboxamide]",> 10000
15,"NS(=O)(=O)c1ccc(N2CC[C@](O)(C(=O)NCc3cc(F)cc(Cl)c3)C2=O)cc1 [B101, N-(3-Chloro-5-fluorobenzyl)-(S)-3-hydroxy-2-oxo-1-(4-sulfamoyl-phenyl)pyrrolidine-3-carboxamide]",10 to 1000
16,"CNC(=O)c1cc2cc(N3CC[C@@](O)(C(=O)NCc4cc(F)cc(Cl)c4)C3=O)ccc2[nH]1 [B102, N-Methyl-5-[(R)-3-(3-chloro-5-fluorobenzylcarbamoyl)-3-hydroxy-2-oxopyrrolidin-1-yl]-1H-indole-2-carboxamide]",> 10000
17,"NC(=O)[C@@]1(O)CCN(c2ccc3c(c2)CCC(=O)N3)C1=O [B103, (S)-3-Hydroxy-2-oxo-1-(2-oxo-1,2,3,4-tetrahydroquinolin-6-yl)-pyrrolidine-3-carboxamide]",> 10000

row,Compound,IC50 [nM]
1,"O=C(NCc1cc(F)cc(Cl)c1)C1(O)CCN(c2cnc3[nH]cc(C(F)(F)F)c3c2)C1=O (stereo not shown) [B104, N-(3-Chloro-5-fluorobenzyl)-3-hydroxy-2-oxo-1-(3-trifluoro-methyl-1H-pyrrolo[2,3-b]pyridin-5-yl)pyrrolidine-3-carboxamide]",10 to 1000
2,"COC(=O)CCc1cc(N2CCC(O)(C(=O)NCc3cc(F)cc(Cl)c3)C2=O)ccc1NC(=O)OC(C)(C)C (stereo not shown) [B105, Methyl 3-{2-tert-butoxy-carbonylamino-5-[3-(3-chloro-5-fluorobenzylcarbamoyl)-3-hydroxy-2-oxopyrrolidin-1-yl]-phenyl}propionate]",10 to 1000
3,"CC(C)(C)OC(=O)Nc1ccc(N2CCC(O)(C(=O)NCc3cc(F)cc(Cl)c3)C2=O)cc1CCC(=O)O (stereo not shown) [B106, 3-{2-tert-Butoxycarbonylamino-5-[3-(3-chloro-5-fluorobenzyl-carbamoyl)-3-hydroxy-2-oxo-pyrrolidin-1-yl]phenyl}propionic acid]",1000 to 10000
4,"NS(=O)(=O)c1cccc(N2CCC(O)(C(=O)NCc3cc(F)cc(Cl)c3)C2=O)c1 (stereo not shown) [B107, N-(3-Chloro-5-fluorobenzyl)-3-hydroxy-2-oxo-1-(3-sulfamoyl-phenyl)pyrrolidine-3-carboxamide]",10 to 1000
5,"NCCOCCOCCNC(=O)c1cc2cc(N3CC[C@](O)(C(=O)NCc4cc(F)cc(Cl)c4)C3=O)ccc2[nH]1 [B108, N-({2-[2-(2-Aminoethoxy)-ethoxy]ethyl})-5-[(S)-3-(3-chloro-5-fluorobenzylcarbamoyl)-3-hydroxy-2-oxopyrrolidin-1-yl]-1H-indole-2-carboxamide]",10 to 1000
6,"O=C1CCc2cc(N3CCC(O)(C(=O)NCc4cc(F)cc(Cl)c4)C3=O)c(F)cc2N1 (stereo not shown) [B109, N-(3-Chloro-5-fluorobenzyl)-1-(7-fluoro-2-oxo-1,2,3,4-tetrahydroquinolin-6-yl)-3-hydroxy-2-oxopyrrolidine-3-carboxamide]",10 to 1000
7,"O=C(NCCc1cc(F)cc(F)c1)[C@@]1(O)CCN(c2ccc3[nH]ccc3c2)C1=O [B110, N-[2-(3,5-Difluorophenyl)ethyl]-(S)-3-hydroxy-1-(1H-indol-5-yl)-2-oxopyrrolidine-3-carboxamide]",10 to 1000
8,"O=C(NCCc1cc(F)cc(F)c1)[C@]1(O)CCN(c2ccc3[nH]ccc3c2)C1=O [B111, N-[2-(3,5-Difluorophenyl)ethyl]-(R)-3-hydroxy-1-(1H-indol-5-yl)-2-oxopyrrolidine-3-carboxamide]",1000 to 10000
9,"O=C(c1cc2cc(N3CC[C@](O)(C(=O)NCc4cc(F)cc(Cl)c4)C3=O)ccc2[nH]1)N1CCOCC1 [B112, N-(3-Chloro-5-fluorobenzyl)-(S)-3-hydroxy-1-[2-(morpholine-4-carbonyl)-1H-indol-5-yl]-2-oxo-pyrrolidine-3-carboxamide]",10 to 1000
10,"NCCOCCNC(=O)c1cc2cc(N3CC[C@](O)(C(=O)NCc4cc(F)cc(Cl)c4)C3=O)ccc2[nH]1 [B113, N-[2-(2-Aminoethoxy)ethyl]-5-[(S)-3-(3-chloro-5-fluorobenzylcarbamoyl)-3-hydroxy-2-oxopyrrolidin-1-yl]-1H-indole-2-carboxamide]",10 to 1000
11,"O=C(c1cc2cc(N3CC[C@](O)(C(=O)NCc4cc(F)cc(Cl)c4)C3=O)ccc2[nH]1)N1CCC1 [B114, N-(3-Chloro-5-fluorobenzyl)-(S)-1-[2-(azetidine-1-carbonyl)-1H-indol-5-yl]-3-hydroxy-2-oxo-pyrrolidine-3-carboxamide]",10 to 1000
12,"NS(=O)(=O)c1ccc(N2CCC(O)(C(=O)NCc3cc(F)cc(Cl)c3)C2=O)cc1 (stereo not shown) [B115, N-(3-Chloro-5-fluorobenzyl)-3-hydroxy-2-oxo-1-(4-sulfamoyl-phenyl)pyrrolidine-3-carboxamide]",10 to 1000
13,"N#CCn1cc(N2CC[C@](O)(C(=O)NCc3cc(F)cc(Cl)c3)C2=O)cn1 [B116, N-(3-Chloro-5-fluorobenzyl)-(S)-1-(1-cyanomethyl-1H-pyrazol-4-yl)-3-hydroxy-2-oxopyrrolidine-3-carboxamide]",10 to 1000
14,"N#CCn1cc(N2CC[C@@](O)(C(=O)NCc3cc(F)cc(Cl)c3)C2=O)cn1 [B117, N-(3-Chloro-5-fluorobenzyl)-(R)-1-(1-cyanomethyl-1H-pyrazol-4-yl)-3-hydroxy-2-oxopyrrolidine-3-carboxamide]",> 10000
15,"CC(=O)NS(=O)(=O)c1ccc(N2CCC(O)(C(=O)NCc3cc(F)cc(Cl)c3)C2=O)cc1 (stereo not shown) [B118, N-(3-Chloro-5-fluorobenzyl)-1-(4-acetylsulfamoylphenyl)-3-hydroxy-2-oxopyrrolidine-3-carboxamide]",10 to 1000
16,"NC(=O)Cn1cc(N2CC[C@](O)(C(=O)NCc3cc(F)cc(Cl)c3)C2=O)cn1 [B119, N-(3-Chloro-5-fluorobenzyl)-(S)-1-(1-carbamoylmethyl-1H-pyrazol-4-yl)-3-hydroxy-2-oxo-pyrrolidine-3-carboxamide]",10 to 1000
17,"O=C(NCCO)c1cc2cc(N3CC[C@](O)(C(=O)NCc4cc(F)cc(Cl)c4)C3=O)ccc2[nH]1 [B121, N-(2-hydroxyethyl)-5-[(S)-3-(3-chloro-5-fluorobenzyl-carbamoyl)-3-hydroxy-2-oxo-pyrrolidin-1-yl]-1H-indole-2-carboxamide]",10 to 1000
